Our source for the IC50 values is patent publication US20110039860A1, “SOLUBLE EPOXIDE HYDROLASE INHIBITORS, COMPOSITIONS CONTAINING SUCH COMPOUNDS AND METHODS OF TREATMENT” (priority 2008, published 2011).

The assay addresses T1, human sEH enzyme (Homo sapiens, UniProt P34913).
T1 construct: His-tag (pET100 vector) (N, cleaved yes); made in house; host or cells: E. coli
T1 sequence (P34913 1-555): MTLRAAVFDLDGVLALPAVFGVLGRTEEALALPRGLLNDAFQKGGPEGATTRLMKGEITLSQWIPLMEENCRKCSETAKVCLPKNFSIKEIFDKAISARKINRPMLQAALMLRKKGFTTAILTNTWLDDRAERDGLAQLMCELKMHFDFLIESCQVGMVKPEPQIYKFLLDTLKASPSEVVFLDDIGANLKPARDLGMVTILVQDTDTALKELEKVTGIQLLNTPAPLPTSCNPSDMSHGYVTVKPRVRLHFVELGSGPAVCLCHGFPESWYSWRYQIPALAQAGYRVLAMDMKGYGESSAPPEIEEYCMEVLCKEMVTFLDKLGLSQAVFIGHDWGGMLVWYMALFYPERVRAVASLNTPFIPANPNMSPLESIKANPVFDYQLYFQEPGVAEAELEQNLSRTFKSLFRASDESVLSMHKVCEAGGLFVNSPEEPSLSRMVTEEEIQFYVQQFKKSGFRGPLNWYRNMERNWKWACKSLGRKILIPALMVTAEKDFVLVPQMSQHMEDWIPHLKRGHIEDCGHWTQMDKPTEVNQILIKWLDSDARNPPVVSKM
The assay is described as follows: sEH human enzyme assay (fluorescence based enzyme in vitro assay). Format: biochemical. The note with it: recombinant human sEH about 1 nM, fluorescence substrate S7 10 uM, 25° C.; read-out: IC50 [nM] for human sEH enzyme inhibition. From the text:
Preparation of Recombinant sEH Human Enzyme
The DNA for expressing sEH was designed based on a […] sEH cDNA, modified to optimize for expression both in E. coli and insect cells. The designed DNA fragment encodes a protein sequence that is identical to full length human sEH, and the DNA was synthesized in vitro. The DNA was then subcloned into the pET100 vector that will generate a fusion protein with an N-terminal His-tag. The recombinant protein was expressed in E. coli. The sEH enzyme was affinity purified by a Ni^++ column. His-tag was removed by Enter Kinase (EK) digestion. The purified enzyme aliquots were frozen and held at −80° C. for later use. Fluorescence Based Enzyme in vitro Assay For each assay (100 ul), an aliquot of enzymes (about 1 nM final concentration) was incubated with a fluorescence substrate, S7 (10 uM final concentration), in sEH assay buffer (25 mM HEPES, […], 0.1 mg/ml BSA) in a 96-well plate. The kinetic reaction reading (Ex330/Em465) was conducted using a plate reader, Spectra max (Molecular Devices) at 25° C.

Take `Fc1cccc(C(F)(F)F)c1-c1ccc(NCC2CCCCC2)nc1` [Compound I-1, N-(cyclohexylmethyl)-5-[2-fluoro-6-(trifluoromethyl)phenyl]pyridin-2-amine]: the IC50 amounted to 1 nM.

On to `O=C(O)[C@H]1CC[C@H](CCNc2ccc(-c3c(F)cccc3C(F)(F)F)cn2)CC1` [Compound I-2], for which the IC50 is 19 nM.

Consider `O=C(c1cccnc1)N1CCC(CNc2ccc(-c3ccccc3C(F)(F)F)cn2)CC1` [Compound I-4], for which the IC50 was 9 nM.

On to `Fc1cccc(Cl)c1CCNc1ccc(-c2c(F)cccc2C(F)(F)F)cn1` [Compound I-5], for which the half-maximal inhibitory concentration (IC50) was 2 nM.

As to `O=C(c1ccccc1C(F)(F)F)N1CCC(CNc2ccc(-c3ccccc3C(F)(F)F)cn2)CC1` [Compound I-6], the IC50 was determined as 3 nM.

Turning to `FC(F)(F)c1cccnc1-c1ccc(NCC2CCCCC2)nc1` [Compound I-7], the half-inhibitory concentration (IC50) was found to be 32 nM.

In the case of `FC(F)(F)c1ccccc1-c1ccc(NCc2ccccc2)nc1` [Compound I-8], the IC50 was 25 nM.

As to `FC(F)(F)c1ccccc1-c1ccc(NCCC(c2ccccc2)c2ccccc2)nc1` [Compound I-9], the half-maximal inhibitory concentration (IC50) is 832 nM.

Turning to `FC(F)(F)c1ccccc1-c1ccc(NCc2cccc3ccccc23)nc1` [Compound I-10], the half-inhibitory concentration (IC50) was found to be 31 nM.

Regarding `Clc1ccccc1-c1ccc(NCC2CCCCC2)nc1` [Compound I-11], the IC50 was found to be 32 nM.

As to `FC(F)(F)Oc1cccc(CNc2ccc(-c3ccccc3C(F)(F)F)cn2)c1` [Compound I-12], the IC50 was 52 nM.

With `O=S(=O)(c1ccccc1C(F)(F)F)N1CCC(CNc2ccc(-c3ccccc3C(F)(F)F)cn2)CC1` [Compound I-13], the IC50 was 18 nM.

Turning to `O=C(N[C@H]1CC[C@H](CNc2ccc(-c3ccccc3C(F)(F)F)cn2)CC1)c1ccccc1C(F)(F)F` [Compound I-14], the IC50 is 7 nM.

Regarding `CC(C)(C)OC(=O)N1CCC(CNc2ccc(-c3cnccc3C(F)(F)F)cn2)CC1` [Compound I-15], the half-maximal inhibitory concentration (IC50) is 8 nM.

Take `FC(F)(F)c1cc(-c2nnn[nH]2)ccc1-c1ccc(NCC2CCCCC2)nc1` [Compound I-16]: the IC50 was determined as 53 nM.

In the case of `FC(F)(F)c1ccccc1-c1ccc(NCC2CCCCC2)nn1` [Compound I-17], the IC50 is 8 nM.

As for `FC(F)(F)c1ccccc1-c1cnc(NCC2CCCCC2)cn1` [Compound I-18], the IC50 was determined as 651 nM.

Regarding `FC(F)(F)c1ccccc1-c1ccc(NCc2cccnc2)nc1` [Compound I-19], the IC50 was found to be 92 nM.

For `Fc1cccc(C(F)(F)F)c1-c1ccc(NCCc2c[nH]cn2)nc1` [Compound I-20], the IC50 amounted to 67 nM.

`FC(F)(F)c1ccccc1-c1ccc(NCCc2c[nH]cn2)nc1` [Compound I-21]: the IC50 is 100 nM.

Regarding `O=C(O)C12CCC(CNc3ccc(-c4c(F)cccc4C(F)(F)F)cn3)(CC1)C2` [Compound I-22], the IC50 amounted to 130 nM.

For the compound `FC(F)(F)c1ccccc1-c1ccc(NCCN2CCN(c3cccc(Cl)c3)CC2)nc1` [Compound I-23], the IC50 worked out at 7 nM.

Take `FC(F)(F)c1ccccc1-c1ccc(NC2CCOCC2)nc1` [Compound I-24]: the IC50 is 200 nM.

`FC(F)(F)c1ccnc(N2CCN(CCNc3ccc(-c4ccccc4C(F)(F)F)cn3)CC2)n1` [Compound I-25]: the half-inhibitory concentration (IC50) came to 26 nM.

On to `FC(F)(F)c1ccccc1-c1ccc(NCC2CC2)nc1` [Compound I-26], for which the half-maximal inhibitory concentration (IC50) stood at 53 nM.

As for `O=C(O)C1CCN(C(=O)c2ccc(-c3ccc(NCCc4c(F)cccc4Cl)nc3)c(C(F)(F)F)c2)CC1` [II-1, 1-[4-(6-{[2-(2-chloro-6-fluorophenyl)ethyl]amino}pyridin-3-yl)-3-(trifluoromethyl)benzoyl]piperidine-4-carboxylic acid], the IC50 stood at 200 nM.

For the compound `O=C(O)CCCOc1ccc(-c2ccc(NCC3CCCCC3)nc2)c(C(F)(F)F)c1` [II-2], the IC50 came to 66 nM.

Consider `O=C(O)c1cccc(-c2ccc(-c3ccc(NCC4CCCCC4)nc3)c(C(F)(F)F)c2)c1` [II-3], for which the half-maximal inhibitory concentration (IC50) was found to be 5 nM.

As to `O=C(NCC1CCCCC1)c1ccc(-c2ccc(NCC3CCCCC3)nc2)c(C(F)(F)F)c1` [II-4], the IC50 is 4 nM.

As for `NC(=O)c1ccc(-c2ccc(NCC3CCCCC3)nc2)c(C(F)(F)F)c1` [II-5], the IC50 is 4 nM.

With `FC(F)(F)c1cc(-c2cccnc2)nn1-c1ccc(NCC2CCCCC2)nc1` [III-1, N-(cyclohexylmethyl)-5-[3-pyridin-3-yl-5-(trifluoromethyl)-1H-pyrazol-1-yl]pyridin-2-amine], the IC50 turned out to be 3 nM.
